From the supplement of paper PMC8253809

Columns and labels:
DIPGX29 [1] = H3.3 K27M diffuse intrinsic pontine glioma line; assay: EC50 (inflection of fitted growth-inhibition curve) (log10 M)
Summary of the method: (§1)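 EC50 and maximal response (yFin) were derived from the lowest-AICc fit, either three- or four-parameter log-logistic. The data were pooled CellTiter-Glo luminescence values, log2-transformed and normalised per plate to % activity between negative (solvent) and positive controls. Patient-derived pHGG/DIPG cell lines and astrocyte controls on 1% Geltrex-coated 384-well plates received a 10-point threefold dilution series (mean top concentration 35 μM) by pin tool, in triplicate, for 7 days (iAstro 3 days) at 37 °C, 5% CO2.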

DIPGX7 [2] = H3.3 K27M diffuse intrinsic pontine glioma line; assay: as above
Summary of the method: as §1

DIPGX9 [3] = diffuse intrinsic pontine glioma line; assay: as above
Summary of the method: as §1

HABS [4] = astrocyte control; assay: as above
Summary of the method: as §1

HGGX2 [5] = paediatric high-grade glioma line; assay: as above
Summary of the method: as §1

HGGX39 [6] = paediatric high-grade glioma line; assay: as above
Summary of the method: as §1

HGGX42 [7] = H3.3 G34R paediatric high-grade glioma line; assay: as above
Summary of the method: as §1

HGGX6 [8] = H3.3 G34R paediatric high-grade glioma line; assay: as above
Summary of the method: as §1

SUDIPGIV [9] = diffuse intrinsic pontine glioma line; assay: as above
Summary of the method: as §1

SUDIPGVI [10] = diffuse intrinsic pontine glioma line; assay: as above
Summary of the method: as §1

SUDIPGXIII [11] = diffuse intrinsic pontine glioma line; assay: as above
Summary of the method: as §1

SUDIPGXIX [12] = diffuse intrinsic pontine glioma line; assay: as above
Summary of the method: as §1

SUDIPGXVII [13] = diffuse intrinsic pontine glioma line; assay: as above
Summary of the method: as §1

SUDIPGXXI [14] = diffuse intrinsic pontine glioma line; assay: as above
Summary of the method: as §1

iAstro [15] = astrocyte control; assay: as above
Summary of the method: as §1

DIPGX29 [16] = assay: area under dose-response curve of % growth inhibition (log2 RLU vs DMSO / staurosporine), 1e-11 to 1e-4 M (% x log10 M); higher = more growth inhibition
Summary of the method: (§2)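 Cells were exposed in triplicate for 7 days (iAstro: 3 days) at 37 °C, 5% CO2 to a 10-point series of threefold dilutions with a mean top concentration of 35 μM. These were patient-derived pHGG/DIPG lines plus astrocytes, grown on 384-well plates coated with 1% Geltrex. Readout was CellTiter-Glo luminescence, log2-transformed and set per plate to % activity between solvent and positive controls, from which area under the curve was derived by trapezoid rule on a log-logistic fit or, failing that, a smoothing spline.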

DIPGX37 = H3.3 K27M diffuse intrinsic pontine glioma line; assay: as above
Summary of the method: as §2

DIPGX7 [17] = assay: as above
Summary of the method: as §2

DIPGX9 [18] = assay: as above
Summary of the method: as §2

HABS [19] = assay: as above
Summary of the method: as §2

HGGX2 [20] = assay: as above
Summary of the method: as §2

HGGX39 [21] = assay: as above
Summary of the method: as §2

HGGX42 [22] = assay: as above
Summary of the method: as §2

HGGX6 [23] = assay: as above
Summary of the method: as §2

SUDIPGIV [24] = assay: as above
Summary of the method: as §2

SUDIPGVI [25] = assay: as above
Summary of the method: as §2

SUDIPGXIII [26] = assay: as above
Summary of the method: as §2

SUDIPGXIX [27] = assay: as above
Summary of the method: as §2

SUDIPGXVII [28] = assay: as above
Summary of the method: as §2

SUDIPGXXI [29] = assay: as above
Summary of the method: as §2

iAstro [30] = assay: as above
Summary of the method: as §2

Compound	EC50 (log10 M) (DIPGX29 [1])	EC50 (log10 M) (DIPGX7 [2])	EC50 (log10 M) (DIPGX9 [3])	EC50 (log10 M) (HABS [4])	EC50 (log10 M) (HGGX2 [5])	EC50 (log10 M) (HGGX39 [6])	EC50 (log10 M) (HGGX42 [7])	EC50 (log10 M) (HGGX6 [8])	EC50 (log10 M) (SUDIPGIV [9])	EC50 (log10 M) (SUDIPGVI [10])	EC50 (log10 M) (SUDIPGXIII [11])	EC50 (log10 M) (SUDIPGXIX [12])	EC50 (log10 M) (SUDIPGXVII [13])	EC50 (log10 M) (SUDIPGXXI [14])	EC50 (log10 M) (iAstro [15])	area under dose-response curve (DIPGX29 [16])	area under dose-response curve (DIPGX37)	area under dose-response curve (DIPGX7 [17])	area under dose-response curve (DIPGX9 [18])	area under dose-response curve (HABS [19])	area under dose-response curve (HGGX2 [20])	area under dose-response curve (HGGX39 [21])	area under dose-response curve (HGGX42 [22])	area under dose-response curve (HGGX6 [23])	area under dose-response curve (SUDIPGIV [24])	area under dose-response curve (SUDIPGVI [25])	area under dose-response curve (SUDIPGXIII [26])	area under dose-response curve (SUDIPGXIX [27])	area under dose-response curve (SUDIPGXVII [28])	area under dose-response curve (SUDIPGXXI [29])	area under dose-response curve (iAstro [30])
O=C(Nc1ccc(Nc2nccc(Nc3cc(C4CCCC4)[nH]n3)n2)cc1)Nc1cccc(C(F)(F)F)c1 [CD532]	-6.34	-6.51	-6.65	-5.37	-6.21	-5.92	-6.66	-6.3	-6.47	-6.5	-6.36	-6.52	-6.47	-7.24	-6.36	221	238	282	305	174	246	200	271	202	276	272	235	283	247	352	213
NC1CCC(Nc2cc(-c3cccc(NCc4cccc(F)c4)n3)c(Cl)cn2)CC1 (configuration not stated) [CDK9-IN-2]	-6.87	-6.76	-7.13	-5.73	-5.72	-5.75	-7	-6.96	-6.76	-6.92	-5.75	-6.93	-6.67	-7.4	-5.35	206	214	249	278	180	181	172	230	199	243	209	167	254	232	326	135
C[C@@H](Oc1cc(-c2cnn(C3CCNCC3)c2)cnc1N)c1c(Cl)ccc(F)c1Cl [CRIZOTINIB]	-4.83	-4.88	-5.11	-4.84	-5.11	-4.69	-5.15	-4.67	-4.85	-5.01	-4.81	-5.23	-4.9	-5.77	-4.89	87.6	87.8	91.9	112	76.5	107	64	117	59.1	96.9	112	74.2	123	87	200	78
COc1ccc(-c2nc(N3CCOCC3)c3sc(CN(C)c4ncc(C(=O)NO)cn4)cc3n2)cn1 [CUDC-907]	-6.81	-7.01	-7.42	-6.29	-7	-6.9	-7.01	-6.65	-6.82	-6.96	-5.71	-6.9	-6.74	-7.9	-6.31	298	331	294	368	299	298	325	315	264	319	290	188	346	294	470	181
CN1CCCN(C(=O)c2cccc(-c3ccc(/C=C4/C(=O)Nc5ccc(Cl)cc54)o3)c2)CC1 [CX-6258]	-5.6	-5.42	-5.34	-5.1	-5.51	-5.28	-5.75	-5.24	-5.37	-5.2	-5.08	-5.48	-5.25	-7.11	-5.49	179	191	157	167	124	162	139	184	132	165	130	112	162	137	330	168
COc1cccc2c1C(=O)c1c(O)c3c(c(O)c1C2=O)C[C@@](O)(C(=O)CO)C[C@@H]3O[C@H]1C[C@H](N)[C@H](O)[C@H](C)O1 [DOXORUBICIN]	-5.63	-6.06	-6.92	-7.02	-6.74	-5.68	-6.5	-5.69	-6.59	-5.86	-5.71	-7.02	-5.78	-8.4	-7.21	169	210	213	293	210	168	174	260	147	255	159	170	294	195	420	78.3
CCCCc1oc2ccc(NS(C)(=O)=O)cc2c1C(=O)c1ccc(OCCCN(CCCC)CCCC)cc1 [DRONEDARONE]	-5.42	-5.35	-5.04	-4.77	-5.19	-5.01	-5.41	-5.14	-5.15	-4.87	-4.89	-5.12	-4.97	-5.77	-5.29	148	138	194	128	91.3	136	108	165	106	149	105	105	137	119	225	134
CCOC(=O)CCNc1cc(N2CCc3ccccc3CC2)nc(-c2ccccn2)n1 [GSK-J4]	-4.87	-5	-4.99	-4.98	-5	-4.98	-4.87	-4.85	-5.01	-4.9	-4.82	-4.97	-4.99	-5.9	-5.51	80.7	67.7	46.8	103	71.4	100	62.2	87.1	63.1	62	52.4	61.1	104	54.8	213	97.7
O=C(c1ccc(Nc2nccc(-c3cc4ccccc4s3)n2)cc1)N1CCC(N2CCCC2)CC1 [IKK 16]	-5.53	-5.27	-4.84	-4.75	-5.4	-4.92	-5.62	-4.83	-5.15	-4.85	-4.69	-4.87	-4.85	-5.37	-5.16	180	183	155	105	93.1	146	137	187	88.2	132	111	107	127	108	165	110
CC(C)C[C@H](NC(=O)CNC(=O)c1cc(Cl)ccc1Cl)B(O)O [IXAZOMIB]	-6.63	-7.71	-7.68	-7.43	-6.73	-7.57	-7.31	-7.27	-7.6	-7.33	-7.52	-7.71	-7.05	-7.9	-7.92	210	315	302	304	288	242	302	234	260	322	242	266	327	247	337	264
Cc1c(C2CCN(CCc3ccccc3)CC2)noc1-c1ccc(Cl)cc1 [L-741,742]	-4.99	-4.84	-5.35	-4.83	-4.83	-4.87	-4.88	-4.87	-4.89	-4.81	-4.71	-4.84	-4.87	-4.91	-5	100	93.6	118	30.3	25.7	35.6	96.9	90.7	83.5	91.7	36.1	21.9	22.6	40.3	145	41.1
C[C@@]12OC(=O)[C@]1([C@@H](O)[C@@H]1C=CCCC1)NC(=O)[C@@H]2CCCl [MARIZOMIB]	-7.05	-6.48	-6.99	-6.2	-7.46	-6.39	-6.62	-6.1	-7.41	-7.2	-6.99	-6.19	-6.26	-7.88	-8.18	100	254	251	302	149	337	241	163	135	407	331	75.8	229	108	422	375
